Results: paper PMC5025730

What was measured:
[1] = CuAAC macrocyclisation (azide + terminal alkyne to 1,4-triazole); CuI 2 eq, DIPEA 3 eq; details: THF, 1.0 mM, 66.0 °C
[2] = CuAAC macrocyclisation (azide + terminal alkyne to 1,4-triazole); CuI 2 eq, DIPEA 3 eq; yield includes preceding coupling step on crude precursor; details: the molecule shown is the open-chain precursor, THF, 1.0 mM, 66.0 °C, 2 steps
[3] = RuAAC macrocyclisation (azide + terminal alkyne to 1,5-triazole); [Cp*RuCl]4 0.1 eq (more for 30b, 31b); details: the molecule shown is the open-chain precursor, THF, 1.0 mM, 66.0 °C
[4] = RuAAC macrocyclisation (azide + terminal alkyne to 1,5-triazole); [Cp*RuCl]4 0.1 eq (0.2 eq for 28b); yield includes preceding coupling step on crude precursor; details: the molecule shown is the open-chain precursor, THF, 1.0 mM, 66.0 °C, 2 steps

O=C(CN1Cc2cn(nn2)CCCCc2cccc(c2)[C@@H]2Nc3cccc(c3[C@H]3OCCC[C@H]32)C1=O)OCCC(F)(F)C(F)(F)C(F)(F)C(F)(F)C(F)(F)C(F)(F)C(F)(F)C(F)(F)F [21d -> 25d (calculated 0.011/0.017 mmol)]
ring closure, isolated yield ([1]; from C#CCN(CC(=O)OCCC(F)(F)C(F)(F)C(F)(F)C(F)(F)C(F)(F)C(F)(F)C(F)(F)C(F)(F)F)C(=O)c1cccc2c1[C@H]1OCCC[C@H]1[C@H](c1cccc(CCCCN=[N+]=[N-])c1)N2, 18-membered ring): 65%

C#CCN(CC(=O)OCCC(F)(F)C(F)(F)C(F)(F)C(F)(F)C(F)(F)C(F)(F)C(F)(F)C(F)(F)F)C(=O)c1cccc(N(C(=O)CCCCCCCN=[N+]=[N-])C(C(=O)NC2CCCCC2)c2ccc(Br)cc2)c1 (stereo not shown) [17b -> 29a (over two steps from 2)]
ring closure, yield over several steps ([2]; 18-membered ring): 24%

CO[C@H]1C(=O)N2c3cccc(c3)C(=O)N(CC(=O)OCCC(F)(F)C(F)(F)C(F)(F)C(F)(F)C(F)(F)C(F)(F)C(F)(F)C(F)(F)F)Cc3cn(nn3)CCCCc3cccc(c3)[C@H]12 [18b -> 31a (trans beta-lactam)]
ring closure, isolated yield ([1]; from C#CCN(CC(=O)OCCC(F)(F)C(F)(F)C(F)(F)C(F)(F)C(F)(F)C(F)(F)C(F)(F)C(F)(F)F)C(=O)c1cccc(N2C(=O)[C@H](OC)[C@H]2c2cccc(CCCCN=[N+]=[N-])c2)c1, 18-membered ring, 24.0 h): 91%

O=C(CN1Cc2cn(nn2)CCCCc2cccc(c2)[C@H]2[C@@H]3CC[C@H](CC3=O)N2c2cccc(c2)C1=O)OCCC(F)(F)C(F)(F)C(F)(F)C(F)(F)C(F)(F)C(F)(F)C(F)(F)C(F)(F)F [20 -> 33 (exo azabicyclooctanone)]
ring closure, isolated yield ([1]; from C#CCN(CC(=O)OCCC(F)(F)C(F)(F)C(F)(F)C(F)(F)C(F)(F)C(F)(F)C(F)(F)C(F)(F)F)C(=O)c1cccc(N2[C@@H]3CC[C@H](C(=O)C3)[C@@H]2c2cccc(CCCCN=[N+]=[N-])c2)c1, 18-membered ring): 65%

O=C(CN1Cc2cn(nn2)CCCCc2cccc(c2)[C@H]2Nc3cc(ccc3[C@H]3OCCC[C@@H]23)C1=O)OCCC(F)(F)C(F)(F)C(F)(F)C(F)(F)C(F)(F)C(F)(F)C(F)(F)C(F)(F)F [21a -> 25a (calculated 0.012/0.021 mmol)]
ring closure, isolated yield ([1]; from C#CCN(CC(=O)OCCC(F)(F)C(F)(F)C(F)(F)C(F)(F)C(F)(F)C(F)(F)C(F)(F)C(F)(F)F)C(=O)c1ccc2c(c1)N[C@H](c1cccc(CCCCN=[N+]=[N-])c1)[C@@H]1CCCO[C@H]21, 18-membered ring): 57%

C#CCN(CC(=O)OCCC(F)(F)C(F)(F)C(F)(F)C(F)(F)C(F)(F)C(F)(F)C(F)(F)C(F)(F)F)C(=O)c1cccc(N2C(=O)[C@H](OC)[C@H]2c2cccc(CCCCN=[N+]=[N-])c2)c1 [18b -> 31b (trans beta-lactam)]
ring closure, isolated yield ([3]; 17-membered ring, 96.0 h): 7%

C#CCN(CC(=O)OCCC(F)(F)C(F)(F)C(F)(F)C(F)(F)C(F)(F)C(F)(F)C(F)(F)C(F)(F)F)C(=O)c1ccc2c(c1)N[C@H](c1cccc(CCCCN=[N+]=[N-])c1)[C@H]1CCCO[C@@H]21 [21b -> 25b (from 21b/21c mixture, over two steps from 2)]
ring closure, yield over several steps ([2]; 18-membered ring): 4%

C#CCN(CC(=O)OCCC(F)(F)C(F)(F)C(F)(F)C(F)(F)C(F)(F)C(F)(F)C(F)(F)C(F)(F)F)C(=O)c1cccc(N2C=CC(=O)CC2c2cccc(CCCCN=[N+]=[N-])c2)c1 (stereo not shown) [19 -> 32b]
ring closure, isolated yield ([3]; 17-membered ring, 48.0 h): 19%

C#CCN(CC(=O)OCCC(F)(F)C(F)(F)C(F)(F)C(F)(F)C(F)(F)C(F)(F)C(F)(F)C(F)(F)F)C(=O)c1cccc(NC(C#N)c2cccc(CCCCN=[N+]=[N-])c2)c1 (stereo not shown) [22 -> 34 (over two steps from 2)]
ring closure, yield over several steps ([2]; 18-membered ring): 71%

O=C1CCc2cccc(c2)NC(=O)NCCc2ccc(cc2)-n2cc(nn2)CN(CC(=O)OCCC(F)(F)C(F)(F)C(F)(F)C(F)(F)C(F)(F)C(F)(F)C(F)(F)C(F)(F)F)C(=O)c2cccc(c2)N1 [13 -> 26a]
ring closure, isolated yield ([1]; from C#CCN(CC(=O)OCCC(F)(F)C(F)(F)C(F)(F)C(F)(F)C(F)(F)C(F)(F)C(F)(F)C(F)(F)F)C(=O)c1cccc(NC(=O)CCc2cccc(NC(=O)NCCc3ccc(N=[N+]=[N-])cc3)c2)c1, 25-membered ring, 36.0 h): 60%

O=C1C=CN2c3cccc(c3)C(=O)N(CC(=O)OCCC(F)(F)C(F)(F)C(F)(F)C(F)(F)C(F)(F)C(F)(F)C(F)(F)C(F)(F)F)Cc3cn(nn3)CCCCc3cccc(c3)C2C1 (stereo not shown) [19 -> 32a]
ring closure, isolated yield ([1]; from C#CCN(CC(=O)OCCC(F)(F)C(F)(F)C(F)(F)C(F)(F)C(F)(F)C(F)(F)C(F)(F)C(F)(F)F)C(=O)c1cccc(N2C=CC(=O)CC2c2cccc(CCCCN=[N+]=[N-])c2)c1, 18-membered ring, 20.0 h): 33%

C#CCN(CC(=O)OCCC(F)(F)C(F)(F)C(F)(F)C(F)(F)C(F)(F)C(F)(F)C(F)(F)C(F)(F)F)C(=O)c1cccc2c1[C@@H]1OCCC[C@@H]1[C@H](c1cccc(CCCCN=[N+]=[N-])c1)N2 [21c -> 25c (from 21b/21c mixture, over two steps from 2)]
ring closure, yield over several steps ([2]; 18-membered ring): 7%

C#CCN(CC(=O)OCCC(F)(F)C(F)(F)C(F)(F)C(F)(F)C(F)(F)C(F)(F)C(F)(F)C(F)(F)F)C(=O)c1cccc(N(C(=O)CCCCCCCN=[N+]=[N-])C(C(=O)NC2CCCCC2)c2ccccc2)c1 (stereo not shown) [17a -> 28b (over two steps from 2)]
ring closure, yield over several steps ([4]; 17-membered ring, 48.0 h): 47%

C#CCN(CC(=O)OCCC(F)(F)C(F)(F)C(F)(F)C(F)(F)C(F)(F)C(F)(F)C(F)(F)C(F)(F)F)C(=O)c1cccc(N2C(=O)[C@H](OC)[C@@H]2c2cccc(CCCCN=[N+]=[N-])c2)c1 [18a -> 30b (cis beta-lactam)]
ring closure, isolated yield ([3]; 17-membered ring, 48.0 h): 33%

C#CCN(CC(=O)OCCC(F)(F)C(F)(F)C(F)(F)C(F)(F)C(F)(F)C(F)(F)C(F)(F)C(F)(F)F)C(=O)c1cccc(NC(=O)CCc2cccc(NC(=O)NCCc3ccc(NC(=O)N[C@@H](CCCCN=[N+]=[N-])C(=O)N(C)C)cc3)c2)c1 [14 -> 27b (over two steps from 13)]
ring closure, yield over several steps ([4]; 32-membered ring, 24.0 h): 12%

C#CCN(CC(=O)OCCC(F)(F)C(F)(F)C(F)(F)C(F)(F)C(F)(F)C(F)(F)C(F)(F)C(F)(F)F)C(=O)c1cccc(N(C(=O)CCCCCCCN=[N+]=[N-])C(C(=O)NC2CCCCC2)c2ccc(Br)cc2)c1 (stereo not shown) [17b -> 29b (over two steps from 2)]
ring closure, yield over several steps ([4]; 17-membered ring): 78%

C#CCN(CC(=O)OCCC(F)(F)C(F)(F)C(F)(F)C(F)(F)C(F)(F)C(F)(F)C(F)(F)C(F)(F)F)C(=O)c1cccc(NC(=O)CCc2cccc(NC(=O)NCCc3ccc(N=[N+]=[N-])cc3)c2)c1 [13 -> 26b]
ring closure, isolated yield ([3]; 24-membered ring, 5.0 h): 54%

C#CCN(CC(=O)OCCC(F)(F)C(F)(F)C(F)(F)C(F)(F)C(F)(F)C(F)(F)C(F)(F)C(F)(F)F)C(=O)c1cccc(N(C(=O)CCCCCCCN=[N+]=[N-])C(C(=O)NC2CCCCC2)c2ccccc2)c1 (stereo not shown) [17a -> 28a (over two steps from 2)]
ring closure, yield over several steps ([2]; 18-membered ring): 18%

CN(C)C(=O)[C@@H]1CCCCn2cc(nn2)CN(CC(=O)OCCC(F)(F)C(F)(F)C(F)(F)C(F)(F)C(F)(F)C(F)(F)C(F)(F)C(F)(F)F)C(=O)c2cccc(c2)NC(=O)N1 [6 -> 24a]
ring closure, isolated yield ([1]; from C#CCN(CC(=O)OCCC(F)(F)C(F)(F)C(F)(F)C(F)(F)C(F)(F)C(F)(F)C(F)(F)C(F)(F)F)C(=O)c1cccc(NC(=O)N[C@@H](CCCCN=[N+]=[N-])C(=O)N(C)C)c1, 17-membered ring): 70%

C#CCN(CC(=O)OCCC(F)(F)C(F)(F)C(F)(F)C(F)(F)C(F)(F)C(F)(F)C(F)(F)C(F)(F)F)C(=O)c1cccc(NC(=O)N[C@@H](CCCCN=[N+]=[N-])C(=O)N(C)C)c1 [6 -> 24b]
ring closure, isolated yield ([3]; 16-membered ring, 6.0 h): 33%

C#CCN(CC(=O)OCCC(F)(F)C(F)(F)C(F)(F)C(F)(F)C(F)(F)C(F)(F)C(F)(F)C(F)(F)F)C(=O)c1cccc(NC(=O)CCc2cccc(NC(=O)NCCc3ccc(NC(=O)N[C@@H](CCCCN=[N+]=[N-])C(=O)N(C)C)cc3)c2)c1 [14 -> 27a (over two steps from 13)]
ring closure, yield over several steps ([2]; 33-membered ring, 24.0 h): 31%

CO[C@H]1C(=O)N2c3cccc(c3)C(=O)N(CC(=O)OCCC(F)(F)C(F)(F)C(F)(F)C(F)(F)C(F)(F)C(F)(F)C(F)(F)C(F)(F)F)Cc3cn(nn3)CCCCc3cccc(c3)[C@@H]12 [18a -> 30a (cis beta-lactam)]
ring closure, isolated yield ([1]; from C#CCN(CC(=O)OCCC(F)(F)C(F)(F)C(F)(F)C(F)(F)C(F)(F)C(F)(F)C(F)(F)C(F)(F)F)C(=O)c1cccc(N2C(=O)[C@H](OC)[C@@H]2c2cccc(CCCCN=[N+]=[N-])c2)c1, 18-membered ring, 24.0 h): 61%
